13 molecules from the NIST ThermoML archive (doi:10.1016/j.fluid.2008.03.011) can be followed below.

Data set [1] in a line: excess molar enthalpy (molar enthalpy of mixing); xn = mol fraction of the nth substance listed. As to conditions: 363.15 K, Liquid, Flow calorimetry.
Data set [2] is described as follows: activity coefficient (dimensionless); of the first substance listed, at infinite dilution; xn = mol fraction of the nth substance listed. As to conditions: 101 kPa, Liquid, x1 = 0.
A short description of data set [3]: activity coefficient (dimensionless); of the first substance listed, at infinite dilution; wn = mass fraction of the nth substance listed. As to conditions: 101 kPa, Liquid, dilutor technique, w1 = 0.

± gives the expanded uncertainty stated by the source.

On to `CCCCCC[n+]1ccn(C)c1.O=S(=O)([N-]S(=O)(=O)C(F)(F)F)C(F)(F)F` + CC1CCCCC1, for which the excess molar enthalpy in data set [1] (1617 kPa, x2 = 0.0612) came to 0.0459 ± 0.00191 kcal/mol; in data set [1] (1617 kPa, x2 = 0.118) it was 0.092 ± 0.00382 kcal/mol; in data set [1] (1617 kPa, x2 = 0.1708), 0.132 ± 0.0055 kcal/mol; in data set [1] (1617 kPa, x2 = 0.2202), 0.166 ± 0.00669 kcal/mol; in data set [1] (1617 kPa, x2 = 0.2663) it was 0.176 ± 0.00717 kcal/mol; in data set [1] (1617 kPa, x2 = 0.3096) it was 0.173 ± 0.00693 kcal/mol. Also, the excess molar enthalpy was 0.154 ± 0.00621 kcal/mol in data set [1] (1617 kPa, x2 = 0.3885); 0.136 ± 0.0055 kcal/mol in data set [1] (1617 kPa, x2 = 0.4586); 0.12 ± 0.00502 kcal/mol in data set [1] (1617 kPa, x2 = 0.5213); 0.0943 ± 0.00382 kcal/mol in data set [1] (1617 kPa, x2 = 0.6288); 0.0722 ± 0.00287 kcal/mol in data set [1] (1617 kPa, x2 = 0.7176); 0.0525 ± 0.00217 kcal/mol in data set [1] (1617 kPa, x2 = 0.7922). For the same molecule, in data set [1] (1617 kPa, x2 = 0.884), the excess molar enthalpy was 0.0269 ± 0.00112 kcal/mol.
As to `CCCCCC[n+]1ccn(C)c1.O=S(=O)([N-]S(=O)(=O)C(F)(F)F)C(F)(F)F` + CCCCCCCC, the excess molar enthalpy in data set [1] (1548 kPa, x2 = 0.0486) is 0.0487 ± 0.00201 kcal/mol; in data set [1] (1548 kPa, x2 = 0.095) it was 0.0882 ± 0.00359 kcal/mol; in data set [1] (1548 kPa, x2 = 0.1392), 0.108 ± 0.0043 kcal/mol; in data set [1] (1548 kPa, x2 = 0.1814) it was 0.116 ± 0.00478 kcal/mol; in data set [1] (1548 kPa, x2 = 0.2217), 0.111 ± 0.00454 kcal/mol; in data set [1] (1548 kPa, x2 = 0.2603), 0.106 ± 0.0043 kcal/mol. Further, the excess molar enthalpy was 0.0959 ± 0.00382 kcal/mol in data set [1] (1548 kPa, x2 = 0.3327); 0.0877 ± 0.00359 kcal/mol in data set [1] (1548 kPa, x2 = 0.3993); 0.0791 ± 0.00335 kcal/mol in data set [1] (1548 kPa, x2 = 0.4608); 0.0636 ± 0.00263 kcal/mol in data set [1] (1548 kPa, x2 = 0.5707); 0.0483 ± 0.00201 kcal/mol in data set [1] (1548 kPa, x2 = 0.666); 0.0384 ± 0.0016 kcal/mol in data set [1] (1548 kPa, x2 = 0.7495). Moreover, the excess molar enthalpy in data set [1] (1548 kPa, x2 = 0.8568) turned out to be 0.0227 ± 0.000956 kcal/mol.
Take `CCO` [ethanol] + CCCCCCn1cc[n+](C)c1.O=S(=O)([O-])C(F)(F)F: the activity coefficient in data set [2] (303.15 K, dilutor technique) came out at 1.05 ± 0.07; in data set [2] (313.15 K, dilutor technique), 1 ± 0.06; in data set [2] (323.15 K, dilutor technique), 0.94 ± 0.06; in data set [2] (333.15 K, dilutor technique), 0.86 ± 0.06.
As for `CCO` [ethanol] + CCCC[N+]1(C)CCCC1.O=S(=O)([O-])C(F)(F)F, the activity coefficient in data set [2] (313.15 K, dilutor technique) came to 0.95 ± 0.06; in data set [2] (323.15 K, dilutor technique) it was 0.92 ± 0.06; in data set [2] (333.15 K, dilutor technique), 0.88 ± 0.06; in data set [2] (343.15 K, dilutor technique), 0.86 ± 0.06.
For the molecule `CCO` [ethanol] + CCOS(=O)(=O)[O-].CCn1cc[n+](C)c1, the activity coefficient in data set [2] (323.15 K, dilutor technique) was 0.57 ± 0.05; in data set [2] (333.15 K, dilutor technique), 0.6 ± 0.05; in data set [2] (343.15 K, dilutor technique) it was 0.65 ± 0.05; in data set [2] (353.15 K, dilutor technique), 0.7 ± 0.05.
With `CC1CCCCC1` [methylcyclohexane] + CCCCCCCC[N+]1(C)CCCC1.O=S(=O)([N-]S(=O)(=O)C(F)(F)F)C(F)(F)F, the activity coefficient in data set [2] (303.15 K, dilutor technique) stood at 4.59 ± 0.41; in data set [2] (313.15 K, dilutor technique) it was 4.41 ± 0.39; in data set [2] (323.15 K, dilutor technique) it was 4.29 ± 0.38; in data set [2] (333.15 K, dilutor technique), 4.18 ± 0.37.
For `CC1CCCCC1` [methylcyclohexane] + CCCCCC[n+]1ccn(C)c1.O=S(=O)([N-]S(=O)(=O)C(F)(F)F)C(F)(F)F the same measures were 6.83 ± 0.61, 6.59 ± 0.59, 6.3 ± 0.56 and 6.06 ± 0.54.
In the same order, the values of `CC1CCCCC1` [methylcyclohexane] + CCCCCCn1cc[n+](C)c1.O=S(=O)([O-])C(F)(F)F are 10.5 ± 0.95, 10.2 ± 0.9, 9.77 ± 0.88 and 9.49 ± 0.85.
For `Cc1ccccc1` [toluene] + CCCCCCCC[N+]1(C)CCCC1.O=S(=O)([N-]S(=O)(=O)C(F)(F)F)C(F)(F)F the same measures were 0.67 ± 0.05, 0.73 ± 0.05, 0.8 ± 0.05 and 0.86 ± 0.06.
Consider `Cc1ccccc1` [toluene] + CCCCCC[n+]1ccn(C)c1.O=S(=O)([N-]S(=O)(=O)C(F)(F)F)C(F)(F)F, for which the activity coefficient was 0.85 ± 0.06 in data set [2] (303.15 K, dilutor technique); 0.95 ± 0.06 in data set [2] (313.15 K, dilutor technique); 1.05 ± 0.07 in data set [2] (323.15 K, dilutor technique); 1.14 ± 0.07 in data set [2] (333.15 K, dilutor technique).
As to `Cc1ccccc1` [toluene] + CCCCCCn1cc[n+](C)c1.O=S(=O)([O-])C(F)(F)F, the activity coefficient in data set [2] (303.15 K, Dilutor technique) was determined as 1.38 ± 0.09; in data set [2] (313.15 K, Dilutor technique), 1.52 ± 0.1; in data set [2] (323.15 K, Dilutor technique), 1.65 ± 0.12; in data set [2] (333.15 K, Dilutor technique) it was 1.75 ± 0.12.
In the case of `O` [water] + CCCCCCn1cc[n+](C)c1.O=S(=O)([O-])C(F)(F)F, the activity coefficient turned out to be 1.31 ± 0.09 in data set [3] (303.15 K), 1.04 ± 0.06 in data set [3] (313.15 K), 0.82 ± 0.05 in data set [3] (323.15 K) and 0.64 ± 0.05 in data set [3] (333.15 K).
Take `O` [water] + CCCC[N+]1(C)CCCC1.O=S(=O)([O-])C(F)(F)F: the activity coefficient in data set [2] (313.15 K, dilutor technique) was found to be 0.67 ± 0.05; in data set [2] (323.15 K, dilutor technique), 0.56 ± 0.05; in data set [2] (333.15 K, dilutor technique) it was 0.51 ± 0.04; in data set [2] (343.15 K, dilutor technique) it was 0.44 ± 0.04.
